Laboratory results as given in patent US9897592B2, “Methods for identifying arthropod repellents and attractants, and compounds and compositions identified by such methods” (The Regents of the University of California, priority 2013, dated 2018).
Where a name gives a salt, the structure may show the parent alone. Read-outs that look alike come from different tables or passages of the source.

Tests used:
[1] = test system: CO2 receptor neuron; test: Amines: inhibition of CO2 receptor neuron activity; format: cell-based; parameters: % Inhibition: concentration or dose not given beside the values
[2] = test system: cpA neuron; test: Single-sensillum recording: activation of cpA neuron by odorants; format: cell-based, Aedes aegypti; conditions: for Activation (spikes s^−1): A. aegypti cpA, 0.5-s pulses, odorants 10^−2 in paraffin oil or water, solvent response subtracted; for Activation (spikes s−1): cpA neuron, 20 compounds from the top 200 SVM ligand predictions, negative values = inhibition, N = 4
Procedure: FIG. 3b depicts representative traces and mean responses of the A. aegypti cpA neuron to 0.5-s pulses of 138 predicted compounds screened using single-sensillum recordings, in which odorants were diluted to 10^−2 in paraffin oil or water, and responses to solvent have been subtracted, n=2-6, and error bars are s.d.
FIG. 5f is a bar graph illustrating the mean responses of the A. aegypti cpA neuron to 0.5-s pulses of 22 newly predicted compounds screened as in FIG. 3b, where salmon bars correspond to odorants found in human odor, odorants were diluted to 10^−2 in paraffin oil or water, and responses to solvent have been subtracted, and n=2-5.
Adult female A. aegypti (Linnaeus 1762) (Rockefeller strain) A. gambiae sensu stricto Giles 1902 (G3 strain), or C. quinquefasciatus Say 1823 were tested 3-12 days post-emergence with single-sensillum extracellular recordings. Chemicals were obtained from Sigma-Aldrich at the highest purity (typically >99%) and were dissolved in paraffin oil or water. […] Response to clean beads was subtracted from the results reported. Only sensilla with cpA activity of <20 spikes s^−1 to negative control were considered for analysis.
CpA-off and sham treated mosquitoes were pre-treated for 3 min in an upended 1 L glass dish in which 100 μl of fresh butyryl chloride (1%) or paraffin oil was allowed to vaporize for 10-20 min. The odor delivery system for different screens is shown in FIG. 7b; solvent responses during the same recording session were subtracted. Inhibition screen was tested. For the ultra-prolonged activator the 3-s stimulus was delivered from a 10 ml disposable pipette using a CS-55 stimulus controller (Syntech), CO2 was delivered, and responses to subsequent odor stimuli were calculated by subtracting baseline activity 1 s prior to each stimulus. When responses to repeated pulses of cyclopentanone and CO2 were compared, baseline activity between seconds 5 and 6 following each stimulus was subtracted. Spike counting was done manually or with Igor Pro6.2 (Wavemetrics) with the Neuromatic v2.00 macro (by Jason Rothman), and peak-to-peak spike amplitudes for FIG. 8 were analysed in Clampfit 10.3 (Molecular Devices).
From the large list of cpA receptor ligands predicted from Example 3 above, 138 compounds were selected based on desirable criteria for application such as smell, presence in natural sources, human safety profile, and cost to procure. These compounds were tested individually using single-sensillum electrophysiology on the cp sensillum of female A. aegypti, according to the procedure described in Example 1 above.

Row | Structure (SMILES) | Activation (spikes s^−1) [2] | other results
1 | NCCCNCCCCNCCCN |  | % Inhibition [1]: 94.81%
2 | CN1CCCC1 [1-methylpyrrolidine] |  | % Inhibition ([1]; inhibition of CO2 receptor neuron activity by amines): 100%
3 | CC1(O)CCOC(=O)C1 (centres unmarked) [4-hydroxy-4-methyloxan-2-one] | −1.0 spikes s^−1 | 
4 | CC(=O)CC(C)(C)O [4-hydroxy-4-methylpentan-2-one] | 2.0 spikes s^−1 | 
5 | Cc1cscn1 [4-methyl-1,3-thiazole] | 111.8 spikes s^−1 | 
6 | CC(C)=CC1CC(C)CCO1 (centres unmarked) [4-methyl-2-(2-methylprop-1-enyl)oxane] | 1.5 spikes s^−1 | 
7 | CCCC1OCC(C)O1 (centres unmarked) [4-methyl-2-propyl-1,3-dioxolane] | 13.0 spikes s^−1 | 
8 | CC(=O)C=C(C)C [4-methylpent-3-en-2-one] | 34.0 spikes s^−1 | 
9 | CC(C)CC(C)O (centres unmarked) [4-methylpentan-2-ol] | 24.0 spikes s^−1 | 
10 | CC(=O)CCC(=O)O [4-oxopentanoic acid] | 4.5 spikes s^−1 | 
11 | CC(=O)CCc1ccccc1 [4-phenylbutan-2-one] | 0.5 spikes s^−1 | 
12 | CCCc1ccc(O)cc1 [4-propylphenol] | −9.0 spikes s^−1 | 
13 | CCCc1ccncc1 [4-propylpyridine] | 34.0 spikes s^−1 | 
14 | c1cnc2c(n1)CCCC2 [5,6,7,8-tetrahydroquinoxaline] | −5.5 spikes s^−1 | 
15 | C=Cc1scnc1C [5-ethenyl-4-methyl-1,3-thiazole] | 50.5 spikes s^−1 | 
16 | CC1=CCC(=O)O1 [5-methyl-3H-furan-2-one] | 56.0 spikes s^−1 | 
17 | Cc1cc(O)cc(O)c1 [5-methylbenzene-1,3-diol] | 0.5 spikes s^−1 | 
18 | CC1CCC(=O)O1 (centres unmarked) [5-methyloxolan-2-one] | 10.0 spikes s^−1 | 
19 | OCCCCCc1ccccc1 [5-phenylpentan-1-ol] | −3.0 spikes s^−1 | 
20 | CCCCCCC1CCCC(=O)O1 (centres unmarked) [6-hexyloxan-2-one] | 1.5 spikes s^−1 | 
21 | Cc1ccc2ncccc2c1 [6-methylquinoline] | 9.5 spikes s^−1 | 
22 | CC(C)=CCC/C(C)=C/C(=O)O [(2E)-3,7-dimethylocta-2,6-dienoic acid] | 3.0 spikes s^−1 | 
23 | CC(C)[C@H](N)C(=O)O [(2S)-2-amino-3-methylbutanoic acid] | 3.5 spikes s^−1 | 
24 | O=C(O)[C@@H]1CCCN1 [(2S)-pyrrolidine-2-carboxylic acid] | 3.5 spikes s^−1 | 
25 | C/C=C(\C)C(=O)O [(E)-2-methylbut-2-enoic acid] | 2.5 spikes s^−1 | 
26 | C/C=C/C(=O)O [(E)-but-2-enoic acid] | −1.5 spikes s^−1 | 

Row | Structure (SMILES) | Activation (spikes s^−1) [2] | other results
27 | CCC/C=C/CO [(E)-hex-2-en-1-ol] | 31.0 spikes s^−1 | 
28 | CC/C=C/C=O [(E)-pent-2-enal] | −5.0 spikes s^−1 | 
29 | CC/C=C\CCO [(Z)-hex-3-en-1-ol] | 2.5 spikes s^−1 | 
30 | CCCCCC/C=C\CO [(Z)-non-2-en-1-ol] | −1.5 spikes s^−1 | 
31 | CC/C=C\CCCCCO [(Z)-non-6-en-1-ol] | 2.0 spikes s^−1 | 
32 | c1ccsc1 [Thiophene] | 116.6 spikes s^−1 | 
33 | CC(C)=CCC/C(C)=C/COC=O [[(2E)-3,7-dimethylocta-2,6-dienyl] formate] | −2.5 spikes s^−1 | 
34 | O=COC/C=C/c1ccccc1 [[(E)-3-phenylprop-2-enyl] formate] | 3.0 spikes s^−1 | 
35 | CC(=O)CC(=O)OCc1ccccc1 [benzyl 3-oxobutanoate] | −1.5 spikes s^−1 | 
36 | O=COCc1ccccc1 [benzyl formate] | 8.0 spikes s^−1 | 
37 | CCC(C)O (centres unmarked) [butan-2-ol] |  | Activation (spikes s−1) [2]: 63.8 spikes s−1
38 | CC(S)C(C)S (centres unmarked) [butane-2,3-dithiol] | 25.0 spikes s^−1 | 
39 | O=C1CCCC(=O)C1 [cyclohexane-1,3-dione] | 1.5 spikes s^−1 | 
40 | OC1CCCCC1 [cyclohexanol] | 59.0 spikes s^−1 | 
41 | C1CCCC1 [cyclopentane] |  | Activation (spikes s−1) [2]: 41.8 spikes s−1
42 | OC1CCCC1 [cyclopentanol] |  | Activation (spikes s−1) [2]: 49.8 spikes s−1
43 | OCC1CCCC1 [cyclopentylmethanol] | 47.5 spikes s^−1 | 
44 | COC(=O)OC [dimethyl carbonate] | 73.6 spikes s^−1 | 
45 | C/C=C/C(=O)OCC [ethyl (E)-but-2-enoate] | 22.0 spikes s^−1 | 
46 | CCOC(C)=O [ethyl acetate] | 62.4 spikes s^−1 | 
47 | CCOC=O [ethyl formate] | 34.5 spikes s^−1 | 
48 | O=Cc1ccoc1 [furan-3-carbaldehyde] | 85.0 spikes s^−1 | 
49 | CCCC(O)CCC [heptan-4-ol] | −3.0 spikes s^−1 | 
50 | C=CCCC(C)=O [hex-5-en-2-one] | 63.4 spikes s^−1 | 
51 | COCc1ccccc1 [methoxymethylbenzene] | 12.0 spikes s^−1 | 
52 | C=C(C)C(=O)OC [methyl 2-methylprop-2-enoate] | 45.0 spikes s^−1 | 

Row | Structure (SMILES) | Activation (spikes s^−1) [2] | other results
53 | COC(=O)C(C)C [methyl 2-methylpropanoate] | 49.4 spikes s^−1 | 
54 | COC(C)=O [methyl acetate] | −50.5 spikes s^−1 | 
55 | CCCC(=O)OC [methyl butanoate] | 44.5 spikes s^−1 | 
56 | COC=O [methyl formate] |  | Activation (spikes s−1) [2]: 59.3 spikes s−1
57 | CCC(=O)OC [methyl propanoate] | 75.0 spikes s^−1 | 
58 | CC1CCCC1 [methylcyclopentane] |  | Activation (spikes s−1) [2]: 16.3 spikes s−1
59 | CSC [methylsulfanylmethane] |  | Activation (spikes s−1) [2]: 99.3 spikes s−1
60 | C=CC(CCCCC)OC(=O)CCC (centres unmarked) [oct-1-en-3-yl butanoate] | 0.0 spikes s^−1 | 
61 | CC(=O)OCC1CCCO1 (centres unmarked) [oxolan-2-ylmethyl acetate] | 10.0 spikes s^−1 | 
62 | CCCCCO [pentan-1-ol] | 50.5 spikes s^−1 | 
63 | O=C1CNCCN1 [piperazin-2-one] | −3.2 spikes s^−1 | 
64 | O=C1CCCCN1 [piperidin-2-one] | 0.0 spikes s^−1 | 
65 | C=CCOC(=O)CCC [prop-2-enyl butanoate] | 16.0 spikes s^−1 | 
66 | C=CCOC(=O)CC [prop-2-enyl propanoate] | 49.5 spikes s^−1 | 
67 | CCCO [propan-1-ol] |  | Activation (spikes s−1) [2]: 60.8 spikes s−1
68 | CC(C)O [propan-2-ol] |  | Activation (spikes s−1) [2]: 25.3 spikes s−1
69 | CC(C)OC(=O)c1ccccc1 [propan-2-yl benzoate] | 6.0 spikes s^−1 | 
70 | CC(C)OC=O [propan-2-yl formate] |  | Activation (spikes s−1) [2]: 63.8 spikes s−1
71 | CCC=O [propanal] |  | Activation (spikes s−1) [2]: −33.8 spikes s−1
72 | CCCS [propane-1-thiol] | 75.0 spikes s^−1 | 
73 | CCCOC(C)=O [propyl acetate] | 52.6 spikes s^−1 | 
74 | CCCOC=O [propyl formate] | 58.0 spikes s^−1 | 
75 | c1ccnnc1 [pyridazine] | 2.5 spikes s^−1 | 
76 | O=C1CCCN1 [pyrrolidin-2-one] | 0.0 spikes s^−1 | 
77 | Sc1cccs1 [thiophene-2-thiol] |  | Activation (spikes s−1) [2]: −35.5 spikes s−1
